According to patent US12071416B2, “Prodrugs of 4-( (1R, 3S)-6-chloro-3-phenyl-2, 3-dihydro-1H-inden-1-yl)-1,2, 2-trimethylpiperazine and 4-( (1R, 3S)-6-chloro-3-(phenyl-D5)-2, 3-dihydro-1H-inden-1-yl)-2, 2-dimethyl-1 (methyl-D3) piperazine” (H. Lundbeck A/S, priority 2018, dated 2024):
Read-outs that look alike come from different tables or passages of the source.

Experiment: Plasma stability assay
Assay type: in vitro ADME, human
Description: Frozen human plasma (stored at −80° C.) was thawed in a water bath followed by centrifugation at 3200×g for 5 min to remove debris. The pH value of the supernatant was then measured and adjusted to 7.4±0.1 by adding 1% phosphoric acid or 1 N sodium hydroxide.
For each test compound, 2 microL of dosing solution (50 microM for test compounds and 100 microM for positive control; propantheline bromide) were spiked into 98 microL of blank plasma to achieve a final concentration of 1 microM test compound and 2 microM positive control.
The test compounds and positive control were incubated in duplicate with human plasma (final DMSO concentration <1%) in a water bath at 37° C. at six different time points (0, 0.5, 1, 2, 4 and 6 hr). At each corresponding time point the incubations were terminated by adding appropriate volume of quenching solution to stop the reaction.
Afterwards, the plasma samples were briefly vortexed and subsequently centrifuged at 3200×g for 20 min. The supernatant was transferred into a 96-well plate and diluted with 200 microL of ultrapure water in the ratio of 1:2 prior to LC-MS/MS analysis. The peak area ratios (PAR) of analyte/internal standard was used to semi-quantitatively determine the concentration of test compounds and control compound. The percentage of test compound remaining at the individual time points relative to the 0 minute sample was reported.
In the determination of in vitro elimination constant, ke, of the parent drug and controls, the analyte/internal standard peak area ratios were converted to percentage remaining with the following equation: […]
The percentage formation of metabolite was calculated by the analyte/internal standard peak area ratios versus T0 (absolute) of metabolite drug and converted to percentage.
The half-life (T1/2) of parent drug and control compounds were calculated from a log linear plot of analyte/internal standard peak area ratios versus time (T1/2=0.693/ke).
Compounds 1a2, 1b2, 2a2, and 2b2 were incubated in human plasma as described above and half-lives of 0.5-1.5 h were determined with the formation of 15-35% of 4-((1R,3S)-6-chloro-3-phenyl-2,3-dihydro-1H-inden-1-yl)-1,2,2-trimethylpiperazine and 4-((1R,3S)-6-chloro-3-(phenyl-d5)-2,3-dihydro-1H-inden-1-yl)-2,2-dimethyl-1-(methyl-d3)piperazine, respectively.

[1] = human plasma, pH 7.4, 37° C., 1 microM test compound, 0-6 hr, LC-MS/MS, read-out: half-life (T1/2) in human plasma

| Structure (SMILES) | half-life at 1 microM (human, plasma, pH 7.4) [h] | half-life at 1 microM [1] [h] |
| --- | --- | --- |
| CC(C)(C)C(=O)OC[N@@+]1(C)CCN([C@@H]2C[C@@H](c3ccccc3)c3ccc(Cl)cc32)CC1(C)C.[Cl-] (single isomer, unassigned) [Compound 1b2] | 0.5 to 1.5 | – |
| [2H]c1c([2H])c([2H])c([C@@H]2C[C@@H](N3CC[N@+](COC(=O)C(C)(C)C)(C([2H])([2H])[2H])C(C)(C)C3)c3cc(Cl)ccc32)c([2H])c1[2H].[Cl-] (single isomer, unassigned) [Compound 2a2] | – | 0.5 to 1.5 |
| CC(C)(C)C(=O)OC[N@+]1(C)CCN([C@@H]2C[C@@H](c3ccccc3)c3ccc(Cl)cc32)CC1(C)C.[Cl-] (single isomer, unassigned) [Compound 1a2] | – | 0.5 to 1.5 |
| [2H]c1c([2H])c([2H])c([C@@H]2C[C@@H](N3CC[N@@+](COC(=O)C(C)(C)C)(C([2H])([2H])[2H])C(C)(C)C3)c3cc(Cl)ccc32)c([2H])c1[2H].[Cl-] (single isomer, unassigned) [Compound 2b2] | 0.5 to 1.5 | – |
